Measured values published in patent publication US20080207694A1, “Hydroxamates as Histone Deacetylase Inhibitors and Pharmaceutical Formulations Containing Them” (priority 2005, published 2008).

Legend:
[1] = system: histone deacetylase (HDAC), nuclear extract of Hela cells; assay: Deacetylase activity on nuclear extract of HeLa cells (Fluor de Lys kit); type: biochemical, human; details: percent inhibition relative to control without inhibitor, compound at 0.1 μM
Protocol: (§1) The activity of the compounds as histone deacetylase (HDAC) inhibitors was measured using an in vitro acetylation assay. The compounds were then evaluated as inhibitors of proliferation of human tumor cell cultures.
Deacetylase Activity on Nuclear Extract of Hela Cells (Human Cervical Cancer Cell)
The assay (Fluor de Lys™ kit, BioMol) is divided into two steps: in the first step the substrate which comprises an acetylated lysine residue is reacted with the nuclear extract (HeLa) containing the enzymatic activity in the presence and absence of inhibitors. In the second step a fluorogenic reagent is added which highlights the deacetylated residues. A reduction in fluorescence is obtained where there has been inhibition of the deacetylase activity. The result is finally expressed as percent inhibition relative to the control without inhibitor at a concentration of 0.1 μM.

[2] = system: Human colon carcinoma cells HCT-116; assay: Cytotoxic activity on culture of human colon carcinoma cells HCT-116 (Alamar Blue); type: cell-based; details: HCT-116 cells, 72 hours after addition of compounds, Alamar Blue viability
Protocol: as §1
24 hours after seeding, the compounds at different concentrations are added. […] 72 hours after addition of the compounds, cell viability is measured by means of the dye Alamar Blue.

O=C(CCCC1CCN(C(=O)NCc2ccccc2)CC1)NO [Ex 7, 4-(3-Hydroxycarbamoyl-propyl)-piperidine-1-carboxylic acid benzylamide]
% inhib. 0.1 μM [1]: 59%
IC50 ([2]; Homo sapiens, HCT-116, 72 h): 300 nM

O=C(CCCC1CCN(C(=O)Nc2ccccc2)CC1)NO [Ex 8, 4-(3-Hydroxycarbamoyl-propyl)-piperidine-1-carboxylic acid phenylamide]
% inhib. 0.1 μM [1]: 53%
IC50 ([2]; Homo sapiens, HCT-116, 72 h): 700 nM

Cc1ccc2ccccc2c1C(=O)N1CCC(CCCC(=O)NO)CC1 [Ex 15, N-Hydroxy-4-[1-(2-methyl-naphthalene-1-carbonyl)-piperidin-4-yl]-butyramide]
% inhib. 0.1 μM [1]: 43%
IC50 ([2]; Homo sapiens, HCT-116, 72 h): 840 nM

Cc1ccc(NC(=O)N2CCC(CCCC(=O)NO)CC2)cc1 [Ex 22, 4-(3-Hydroxycarbamoyl-propyl)-piperidine-1-carboxylic acid p tolylamide]
% inhib. 0.1 μM [1]: 67%
IC50 [2]: 940 nM

O=C(CCCC1CCN(C(=O)NCc2ccc(Cl)cc2)CC1)NO [Ex 34, 4-(3-Hydroxycarbamoyl-propyl)-piperidine-1-carboxylic acid 4-chloro-benzylamide]
% inhib. 0.1 μM [1]: 64%
IC50 ([2]; Homo sapiens, HCT-116, 72 h): 330 nM

O=C(CCCC1CCN(C(=O)Nc2cccc3ccccc23)CC1)NO [Ex 35, 4-(3-Hydroxycarbamoyl-propyl)-piperidine-1-carboxylic acid 1-naphthylamide]
% inhib. 0.1 μM [1]: 55%
IC50 ([2]; Homo sapiens, HCT-116, 72 h): 710 nM

O=C(CCCC1CCN(C(=O)Nc2ccc3ccccc3c2)CC1)NO [Ex 36, 4-(3-Hydroxycarbamoyl-propyl)-piperidine-1-carboxylic acid 2-naphthylamide]
% inhib. 0.1 μM [1]: 73%
IC50 ([2]; Homo sapiens, HCT-116, 72 h): 830 nM

O=C(CCCC1CCN(C(=O)NCc2cccc(Cl)c2)CC1)NO [Ex 39, 4-(3-Hydroxycarbamoyl-propyl)-piperidine-1-carboxylic acid 3-chloro-benzylamide]
% inhib. 0.1 μM [1]: 60%
IC50 ([2]; Homo sapiens, HCT-116, 72 h): 810 nM

O=C(CCCC1CCN(C(=O)NCc2ccccc2F)CC1)NO [Ex 45, 4-(3-Hydroxycarbamoyl-propyl)-piperidine-1-carboxylic acid 2-fluoro-benzylamide]
% inhib. 0.1 μM [1]: 79%
IC50 ([2]; Homo sapiens, HCT-116, 72 h): 890 nM

Cc1ccc(CNC(=O)N2CCC(CCCC(=O)NO)CC2)cc1 [Ex 52, 4-(3-Hydroxycarbamoyl-propyl)-piperidine-1-carboxylic acid 4-methyl-benzylamide]
% inhib. 0.1 μM [1]: 68%
IC50 ([2]; Homo sapiens, HCT-116, 72 h): 500 nM

Nc1ccccc1NC(=O)N1CCC(CCCC(=O)NO)CC1 [Ex 73, 4-(3-Hydroxycarbamoyl-propyl)-piperidine-1-carboxylic acid (2-amino-phenyl)-amide]
% inhib. 0.1 μM [1]: 73%
IC50 ([2]; Homo sapiens, HCT-116, 72 h): 840 nM

O=C(CCCC1CCN(C(=O)CNC(=O)c2cc3ccccc3s2)CC1)NO [Ex 79, Benzo[b]thiophene-2-carboxylic acid {2-[4-(3-hydroxycarbamoyl-propyl)-piperidin-1-yl]-2-oxo-ethyl}-amide]
% inhib. 0.1 μM [1]: 70%
IC50 ([2]; Homo sapiens, HCT-116, 72 h): 770 nM

N[C@@H](CCc1ccccc1)C(=O)N1CCC(CCCC(=O)NO)CC1 [Ex 82, 4-[1-(2-(S)-Amino-4-phenyl-butyryl)-piperidin-4-yl]-N-hydroxy-butyramide]
% inhib. 0.1 μM [1]: 62%
IC50 ([2]; Homo sapiens, HCT-116, 72 h): 530 nM

O=C(CCCC1CCN(C(=O)Nc2cccc(Cl)c2F)CC1)NO [Ex 83, 4-(3-Hydroxycarbamoyl-propyl)-piperidine-1-carboxylic acid (3-chloro-2-fluoro-phenyl)-amide]
% inhib. 0.1 μM [1]: 58%
IC50 ([2]; Homo sapiens, HCT-116, 72 h): 670 nM

O=C(CCCC1CCN(C(=O)Nc2ccc(Cl)cc2F)CC1)NO [Ex 90, 4-(3-Hydroxycarbamoyl-propyl)-piperidine-1-carboxylic acid (4-chloro-2-fluoro-phenyl)-amide]
% inhib. 0.1 μM [1]: 56%
IC50 ([2]; Homo sapiens, HCT-116, 72 h): 450 nM

N[C@H](Cc1cccc2ccccc12)C(=O)N1CCC(CCCC(=O)NO)CC1 [Ex 93, 4-[1-(2-(R)-Amino-3-naphthalen-1-yl-propionyl)-piperidin-4-yl]-N-hydroxy-butyramide]
% inhib. 0.1 μM [1]: 64%
IC50 ([2]; Homo sapiens, HCT-116, 72 h): 500 nM

O=C(CCCC1CCN(C(=O)[C@H](CO)NC(=O)c2cc3ccccc3s2)CC1)NO [Ex 101, Benzo[b]thiophene-2-carboxylic acid {2-[4-(3-hydroxycarbamoyl-propyl)-piperidin-1-yl]-1-(S)-hydroxymethyl-2-oxo-ethyl}-amide]
% inhib. 0.1 μM [1]: 64%
IC50 ([2]; Homo sapiens, HCT-116, 72 h): 510 nM

O=C(CCCC1CCN(C(=O)[C@@H](CO)NC(=O)c2cc3ccccc3s2)CC1)NO [Ex 102, Benzo[b]thiophene-2-carboxylic acid {2-[4-(3-hydroxycarbamoyl-propyl)-piperidin-1-yl]-1-(R)-hydroxymethyl-2-oxo-ethyl}-amide]
% inhib. 0.1 μM [1]: 54%
IC50 ([2]; Homo sapiens, HCT-116, 72 h): 790 nM

CN(C)[C@@H](CCc1ccccc1)C(=O)N1CCC(CCCC(=O)NO)CC1 [Ex 103, 4-[1-(2-(S)-Dimethylamino-4-phenyl-butyryl)-piperidin-4-yl]-N-hydroxy-butyramide]
% inhib. 0.1 μM [1]: 49%
IC50 ([2]; Homo sapiens, HCT-116, 72 h): 200 nM

N[C@@H](CCc1ccccc1)C(=O)N1CCC(CCCC(=O)NO)CC1 [Ex 105, 4-[1-(2-(S)-Amino-4-phenyl-butyryl)-piperidin-4-yl]-N-hydroxy-butyramide]
% inhib. 0.1 μM [1]: 59%
IC50 [2]: 950 nM

O=C(CCCC1CCN(C(=O)NCc2ccco2)CC1)NO [Ex 106, 4-(3-Hydroxycarbamoyl-propyl)-piperidine-1-carboxylic acid (furan-2-ylmethyl)-amide]
% inhib. 0.1 μM [1]: 52%
IC50 ([2]; Homo sapiens, HCT-116, 72 h): 710 nM

N[C@@H](CC(=O)N1CCC(CCCC(=O)NO)CC1)c1ccc2ccccc2c1 [Ex 109, 4-[1-(3-(S)-Amino-3-naphthalen-2-yl-propionyl)-piperidin-4-yl]-N-hydroxy-butyramide]
% inhib. 0.1 μM [1]: 71%
IC50 ([2]; Homo sapiens, HCT-116, 72 h): 68 nM

O=C(CCCC1CCN(C(=O)[C@@H](CCO)NC(=O)c2cc3ccccc3s2)CC1)NO [Ex 110, Benzo[b]thiophene-2-carboxylic acid{3-hydroxy-1-(R)-[4-(3-hydroxycarbamoyl-propyl)-piperidine-1-carbonyl]-propyl}-amide]
% inhib. 0.1 μM [1]: 54%
IC50 [2]: 260 nM

N[C@H](CC(=O)N1CCC(CCCC(=O)NO)CC1)c1ccc2ccccc2c1 [Ex 111, 4-[1-(3-(R)-Amino-3-naphthalen-2-yl-propionyl)-piperidin-4-yl]-N-hydroxy-butyramide]
% inhib. 0.1 μM [1]: 66%
IC50 ([2]; Homo sapiens, HCT-116, 72 h): 550 nM

N[C@@H](CC(=O)N1CCC(CCCC(=O)NO)CC1)c1ccccc1 [Ex 112, 4-[1-(3-(S)-Amino-3-phenyl-propionyl)-piperidin-4-yl]-N-hydroxy-butyramide]
% inhib. 0.1 μM [1]: 55%
IC50 ([2]; Homo sapiens, HCT-116, 72 h): 310 nM

O=C(CCCC1CCN(C(=O)[C@H](CCO)NC(=O)c2cc3ccccc3s2)CC1)NO [Ex 113, Benzo[b]thiophene-2-carboxylic acid{3-hydroxy-1-(S)-[4-(3-hydroxycarbamoyl-propyl)-piperidine-1-carbonyl]-propyl}-amide]
% inhib. 0.1 μM [1]: 61%
IC50 [2]: 270 nM

O=C(CCCC1CCN(C(=O)[C@H](CO)NC(=O)c2ccc3sccc3c2)CC1)NO [Ex 114, Benzo[b]thiophene-5-carboxylic acid{2-[4-(3-hydroxycarbamoyl-propyl)-piperidin-1-yl]-1-(S)-hydroxymethyl-2-oxo-ethyl}-amide]
% inhib. 0.1 μM [1]: 61%
IC50 [2]: 340 nM

NC[C@@H](NC(=O)c1cc2ccccc2s1)C(=O)N1CCC(CCCC(=O)NO)CC1 [Ex 115, 2-oxo-ethyl}-amideBenzo[b]thiophene-2-carboxylic acid{1-(R)-aminomethyl-2-[4-(3-hydroxycarbamoyl-propyl)-piperidin-1-yl]-]
% inhib. 0.1 μM [1]: 62%
IC50 [2]: 900 nM

O=C(CCCC1CCN(C(=O)[C@H](CO)NC(=O)c2nccc3ccccc23)CC1)NO [Ex 122, Isoquinoline-1-carboxylic acid {2-[4-(3-hydroxycarbamoyl-propyl)-piperidin-1-yl]-1-(S)-hydroxymethyl-2-oxo-ethyl}-amide]
% inhib. 0.1 μM [1]: 42%
IC50 ([2]; Homo sapiens, HCT-116, 72 h): 420 nM

Cc1ccc(NC(=O)N2CCC(CCCC(=O)NO)CC2)c(N)c1 [Ex 126, 4-(3-Hydroxycarbamoyl-propyl)-piperidine-1-carboxylic acid (2-amino-4-methyl-phenyl)-amide]
% inhib. 0.1 μM [1]: 63%
IC50 ([2]; Homo sapiens, HCT-116, 72 h): 400 nM

CCCOc1ccc(NC(=O)N2CCC(CCCC(=O)NO)CC2)cc1 [Ex 137, 4-(3-Hydroxycarbamoyl-propyl)-piperidine-1-carboxylic acid (4-propoxy-phenyl)-amide]
% inhib. 0.1 μM [1]: 68%
IC50 ([2]; Homo sapiens, HCT-116, 72 h): 150 nM

CC(C)Oc1ccc(NC(=O)N2CCC(CCCC(=O)NO)CC2)cc1 [Ex 139, 4-(3-Hydroxycarbamoyl-propyl)-piperidine-1-carboxylic acid (4-isopropoxy-phenyl)-amide]
% inhib. 0.1 μM [1]: 56%
IC50 ([2]; Homo sapiens, HCT-116, 72 h): 400 nM

N[C@@H](CC(=O)N1CCC(CCCC(=O)NO)CC1)Cc1ccc2ccccc2c1 [Ex 144, 4-[1-(3-(R)-Amino-4-naphthalen-2-yl-butyryl)-piperidin-4-yl]-N-hydroxy-butyramide]
% inhib. 0.1 μM [1]: 69%
IC50 ([2]; Homo sapiens, HCT-116, 72 h): 240 nM

N[C@H](CC(=O)N1CCC(CCCC(=O)NO)CC1)Cc1csc2ccccc12 [Ex 146, 4-[1-(3-(S)-Amino-4-benzo[b]thiophen-3-yl-butyryl)-piperidin-4-yl]-N-hydroxy-butyramide]
% inhib. 0.1 μM [1]: 68%
IC50 ([2]; Homo sapiens, HCT-116, 72 h): 60 nM
